In ChEMBL document CHEMBL4184293, “Structure-based design and biological evaluation of inhibitors of the pseudomonas aeruginosa heme oxygenase (pa-HemO)” (Bioorg Med Chem Lett, 2018):
Activity calls are given as the source filed them. No cut-off for these calls is given here.

What was measured:
[1] = target: T1, Heme oxygenase (Pseudomonas aeruginosa, UniProt O69002); assay: Binding affinity to Pseudomonas aeruginosa HemO by intrinsic fluorescence quenching assay
T1 sequence (O69002 whole entry): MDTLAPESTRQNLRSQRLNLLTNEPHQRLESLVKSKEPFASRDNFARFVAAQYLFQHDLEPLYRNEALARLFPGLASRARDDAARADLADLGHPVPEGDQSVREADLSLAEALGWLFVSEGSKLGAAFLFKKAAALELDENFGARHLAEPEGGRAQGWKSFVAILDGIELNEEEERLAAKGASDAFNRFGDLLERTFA

[2] = system: Pseudomonas aeruginosa; assay: Antibacterial activity against Pseudomonas aeruginosa PAO1 after 4 hrs in presence of heme or FeCl3; type: functional
[3] = system: Pseudomonas aeruginosa; assay: Antibiofilm activity against Pseudomonas aeruginosa PAO1 after 24 hrs by crystal violet staining based assay; type: functional
[4] = target: T2, Heme oxygenase (Pseudomonas aeruginosa) (UniProt O69002); assay: Binding affinity to Pseudomonas aeruginosa HemO assessed as chemical shift perturbations after 2 hrs by 15N-1H TROSY HSQC NMR method
T2 sequence (whole entry): T1 sequence (O69002 whole entry)

[5] = target: T2, Heme oxygenase (Pseudomonas aeruginosa); assay: Binding affinity to Pseudomonas aeruginosa HemO by STD-NMR method

| Structure (SMILES) | Kd [1] [µM] | also measured |
| --- | --- | --- |
| O=C1NC(=S)SC1=Cc1ccc(-c2ccccc2)cc1 | 2.3 | MIC50 [2]: inactive; MBEC99.9 [3]: >300 µg/mL |
| O=C(O)CCN1C(=O)/C(=C/c2ccc(Oc3ccccc3)cc2)SC1=S | 6.5 |  |
| O=C(O)CCN1C(=O)/C(=C/c2c[nH]c3ccccc23)SC1=S | 6.4 |  |
| O=C(O)CCN1C(=O)/C(=C/c2ccc(F)cc2)SC1=S | 44 |  |
| O=C(O)CCN1C(=O)/C(=C/c2ccco2)SC1=S | 38 |  |
| COc1ccc(/C=C2\SC(=S)N(CCC(=O)O)C2=O)cc1 | 23 |  |
| O=C1/C(=C/c2ccco2)SC(=S)N1CCc1nn[nH]n1 | 26 |  |
| N#Cc1cccc(-c2ccc(C=C3SC(=S)N(CCC(=O)O)C3=O)o2)c1 | 13 |  |
| CN(C)CCN1C(=O)C(=Cc2ccc(-c3ccccc3)cc2)SC1=S | 18 | MIC50 [2]: inactive; MBEC99.9 [3]: >300 µg/mL |
| O=C(O)CCN1C(=O)/C(=C/c2cccc(Nc3ccccc3)c2)SC1=S | 1.2 | MIC50 ([2]; PAO1, 4 h): > 300 µg/mL; MBEC99.9 [3]: >300 µg/mL; Activity [4]: Active |
| O=C(O)CCN1C(=O)C(=Cc2ccc3ccccc3c2)SC1=S | 3.9 |  |
| NCCN1C(=O)/C(=C/c2ccc(-c3ccccc3)cc2)SC1=S | 43 | MIC50 ([2]; PAO1, 4 h): > 300 µg/mL; MBEC99.9 [3]: >300 µg/mL |
| O=C(O)CCN1C(=O)C(=Cc2ccc(-c3cccc(O)c3)o2)SC1=S | 1.1 | MIC50 ([2]; PAO1, 4 h): > 300 µg/mL; MBEC99.9 [3]: >300 µg/mL; Activity [4]: Active |
| O=C(O)CCN1C(=O)/C(=C/c2ccc(Cl)cc2)SC1=S | 15 |  |
| O=C(O)CCN1C(=O)C(=Cc2cccc3ccccc23)SC1=S | 13 |  |
| O=C(O)CCN1C(=O)C(=Cc2cccc(-c3ccccc3)c2)SC1=S | 20 |  |
| O=C1/C(=C/c2ccccn2)SC(=S)N1CCc1nnn[nH]1 | 27 | Activity [5]: Active; Activity [4]: Active |
| O=C(O)CCN1C(=O)/C(=C/c2ccc(O)c(O)c2)SC1=S | 57 |  |
| O=C1/C(=C/c2ccc(O)c(O)c2)SC(=S)N1CCc1nnn[nH]1 | 45 |  |
| COc1cccc(/C=C2\SC(=S)N(CCC(=O)O)C2=O)c1 | 25 |  |
| O=C1Nc2ccc(Cl)cc2/C1=C\c1ccc(-c2ccccc2)cc1 | 5.2 | MIC50 [2]: inactive; MBEC99.9 [3]: >300 µg/mL |
| O=C(O)CCN1C(=O)/C(=C/c2ccccn2)SC1=S | 51 |  |
| O=C(O)CCN1C(=O)/C(=C/c2ccc(Cc3ccccc3)cc2)SC1=S | 7 |  |
| COC(=O)c1ccc(-c2ccc(C=C3SC(=S)N(CCC(=O)O)C3=O)o2)cc1 | 28 |  |
| O=C(O)CCN1C(=O)C(=Cc2ccc(-c3ccccc3)cc2)SC1=S | 3.3 | MIC50 ([2]; PAO1, 4 h): > 300 µg/mL; MBEC99.9 [3]: >300 µg/mL; Activity [4]: Active |
| COC(=O)c1cccc(-c2ccc(C=C3SC(=S)N(CCC(=O)O)C3=O)o2)c1 | 7.6 |  |
| CC(C)c1ccc(/C=C2\SC(=S)N(CCC(=O)O)C2=O)cc1 | 10 |  |
| COC(=O)c1cc(-c2ccc(C=C3SC(=S)N(CCC(=O)O)C3=O)o2)ccc1N | 6.5 |  |
| O=C(O)CCN1C(=O)/C(=C/c2ccc(Cl)c(Cl)c2)SC1=S | 14 |  |
| O=C(O)CCN1C(=O)/C(=C/c2cn(Cc3ccccc3)c3ccccc23)SC1=S | 7.4 |  |
